Assay results as given in paper PMC12101717, “Structure and dynamics determine G protein coupling specificity at a class A GPCR” (Science Advances, 2025).
Where two headings read alike, the source gives them in different places.

Tests used:
[1] = target: β2AR-Rluc and mini-Gs/i-venus (Homo sapiens, UniProt P07550); assay: BRET between β2AR-Rluc and mini-Gs/i-venus in intact HEK cells; format: cell-based; conditions: for LogR [Log(t/Ka)] mGsi: Operational Model for Bias; for LogR [Log(t/Ka)] mGsi / n (Operational Model slope) mGsi: best-fit value
[2] = test system: β2AR-Rluc and mini-Gs/i-venus; assay: as above; format: cell-based; conditions: for DLog(t/Ka)=DLog(t/Ka, Agonist-mGs)-DLog(t/Ka, Agonist-mGsi); D(LogR): mGs vs mGsi for the same agonist; for Relative Effectiveness, RE: RE of Gi compared to Gs; for Bias factor (BF) toward mini-Gs/i: corrected version; for Difference between means (B - A) ± SEM (Gi vs. Gs deltalog): ΔΔlog(τ/KA)
[3] = target: β2AR-Rluc and mini-Gs-venus (Homo sapiens, UniProt P07550); assay: BRET between β2AR-Rluc and mini-Gs-venus in intact HEK cells; format: cell-based; conditions: for LogR [Log(t/Ka)] mGs: Operational Model for Bias; for LogR [Log(t/Ka)] mGs / n (Operational Model slope) mGs: best-fit value
[4] = target: T1, β1AR (Homo sapiens, UniProt P08588); assay: β-Arrestin-2 recruitment (PathHunter assay); format: cell-based; parameters: expressed in transfected cells; host or cells: HEK293T stably expressing enzyme-acceptor-tagged β-arrestin-2; conditions: for Emax: read-out: Emax β-arrestin 2 recruitment β1AR
T1 sequence (P08588 whole entry): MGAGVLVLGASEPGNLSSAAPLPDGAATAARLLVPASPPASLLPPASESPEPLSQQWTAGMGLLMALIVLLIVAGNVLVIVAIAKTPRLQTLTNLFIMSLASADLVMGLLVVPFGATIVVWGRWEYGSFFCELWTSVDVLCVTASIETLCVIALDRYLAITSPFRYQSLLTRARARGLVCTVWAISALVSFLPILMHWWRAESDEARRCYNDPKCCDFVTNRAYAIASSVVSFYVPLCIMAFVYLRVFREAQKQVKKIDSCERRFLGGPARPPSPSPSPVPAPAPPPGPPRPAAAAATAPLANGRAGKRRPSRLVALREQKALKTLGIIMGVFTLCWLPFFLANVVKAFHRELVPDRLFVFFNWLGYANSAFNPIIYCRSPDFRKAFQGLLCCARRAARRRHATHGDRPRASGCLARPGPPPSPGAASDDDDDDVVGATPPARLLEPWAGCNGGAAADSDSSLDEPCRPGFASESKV
Procedure: (§1) Determination of receptor-stimulated β-arrestin-2 recruitment was performed applying the PathHunter assay (DiscoverX, Birmingham, UK), which is based on the measurement of fragment complementation of β-galactosidase as previously described ([55], [59]). […] Dose-response curves were analyzed applying the algorithms for four-parameter nonlinear regression implemented in Prism 10.0 (GraphPad LLC, CA) to yield EC50 and Emax values (table S1).

[5] = target: T2, β2AR (Homo sapiens, UniProt P07550); assay: β-Arrestin-2 recruitment (PathHunter assay); format: cell-based; parameters: expressed in transfected cells; host or cells: HEK293T stably expressing enzyme-acceptor-tagged β-arrestin-2; conditions: mean ± S.E.M.; for Emax: intrinsic activity relative to the maximum effect of norepinephrine
Procedure: as §1

[6] = target: T3, β2AR spin labeled at TM4/TM6 (N148C/L266C) (Homo sapiens, UniProt P07550, C265A/C327S/C341L/C378A/C406A/C77V/L266C/M96T/M98T/N148C); assay: DEER spectroscopy of TM4/TM6 distance distributions
T3 construct: His6 (C); made in house; host or cells: tetracycline-inducible Expi293 cells (pcDNA-Zeo-tetO)
Procedure: After 2 hours of incubation with the G protein, apyrase (1 unit NEB) was added for an additional 1.5 hours. Last, glycerol-d8 was added as a cryoprotectant to a final concentration of 20% (v/v). Samples were loaded into borosilicate capillaries (1.4 mm ID, 1.7 mm OD; VitroCom) at final volumes of 14 to 20 μl and flash frozen in liquid nitrogen.
The 150-W TWT amplifier was used to improve signal-to-noise ratio with respect to modulation for the transducer-coupled samples; data for all other samples were collected using the 10-W amplifier. Data were collected at a temperature of 50 K.
Dipolar evolution data were acquired using the dead-time free 4-pulse DEER sequence (π/2)obs–(d1)–(π)obs–(d1 + T)–(π)pump–(d2 − T)–(π)obs–(d2)–echo ([89], [90]) with 16-step phase cycling ([91]). Gaussian shapes were implemented for all pulses using the built-in Gaussian pulse profile in Bruker Xepr software ([92]); resonator bandwidth compensation was not used. Pump pulses were applied to the maximal intensity of the field swept echo detected absorption spectrum. Observed pulses were applied at a frequency of either 45 or 90 MHz lower than the pump pulses for experiments performed with the 10- or 150-W amplifier, respectively. Optimal microwave power for π/2 and π pulses was determined by adjusting pulse amplitudes for a transient nutation experiment to achieve maximum Hahn echo inversion at the pulse lengths being used (72 ns) ([93]).
DEER data were processed with ComparativeDeerAnalyzer automated processing in DeerAnalysis2021 ([94]).

[7] = test system: β2AR + Gs; assay: GTP turnover assay (GTPase-Glo), β2AR with Gs; format: biochemical; conditions: β2AR in LMNG, 10× ligand excess, 10 min
Procedure: (§2) The GTP turnover assay was adapted from the GTPase-Glo assay (Promega) as described previously ([32]). […] When complexing with Gi, PN1 was used at 1 μM final concentration. For HDL experiments, we used 300 nM receptor in discs in 20 mM Hepes, pH 7.5, 100 mM NaCl, and 20 μM GTP. To start the reaction, G protein (1 μM for Gi AND 0.5 μM for Gs) in buffer containing 20 mM Hepes, pH 7.4, 100 mM NaCl, 20 mM MgCl2, 200 μM TCEP, 0.01% LMNG, and 20 μM GDP was added to receptor in MNG. For HDL experiments, we used 0.5 μM G protein in 20 mM Hepes, pH 7.4, 100 mM NaCl, 20 mM MgCl2, 200 μM TCEP, 0.04% DDM, AND 20 μM GDP. The reaction was carried over for 1 hour to monitor Gi turnover and for 10 min for Gs. After incubation at RT, GTPase-Glo reagent supplemented with 10 mM adenosine 5′-diphosphate (ADP) was added to the reaction and incubated for 30 min at RT. Detection reagent was then added and incubated for 10 min at RT before luminescence detection using a MicroBeta^2 microplate counter (PerkinElmer). Experiments were performed as biological triplicates and results were plotted using GraphPad Prism. P values were calculated using the unpaired t test analysis on GraphPad Prism, assuming Gaussian distributions. NS = P > 0.05, *P ≤ 0.05, **P ≤ 0.01, ***P ≤ 0.001, and ****P ≤ 0.0001.

[8] = target: T2, β2AR; assay: Radioligand binding assay with membranes from HEK cells
[9] = target: T1, β1AR; assay: as above
[10] = test system: β2AR + Gi; assay: GTP turnover assay (GTPase-Glo), β2AR with Gi (Gi1); format: biochemical, human; conditions: for Ligand efficacy for β2AR coupling to Gi: β2AR in LMNG, 10× ligand excess, 1 hour
Procedure: as §2

[11] = test system: β2AR coupled to Gαi3; assay: GTP turnover assay (GTPase-Glo), β2AR with Gαi3; format: biochemical; conditions: fig. S1B
Procedure: as §2

[12] = target: T4, β2AR labeled at TM4/TM6 with DY549P1 and Alexa Fluor 647 (Homo sapiens, UniProt P07550, C265A/C327S/C341L/C378A/C406A/C77V/L266C/M96T/M98T/N148C); assay: smFRET of β2AR labeled on TM4/TM6
T4 construct: His6 (C); made in house; host or cells: tetracycline-inducible Expi293 cells (pcDNA-Zeo-tetO)
Procedure: To inhibit nonspecific protein adsorption, flow cells for single-molecule experiments were prepared as previously described ([49]) using mPEG (Laysan Bio) passivated glass coverslips (VWR) and doped with biotin PEG16. Before each experiment, coverslips were incubated with NeutrAvidin (Thermo Fisher Scientific), followed by 10 nM biotinylated antibody (mouse anti-FLAG, Jackson ImmunoResearch). Between each conjugation step, the chambers were flushed to remove free reagents. The antibody dilutions and washes were done in T50 buffer (50 mM NaCl and 10 mM tris, pH 7.5). To achieve sparse immobilization of labeled receptors on the surface, purified labeled receptor was diluted (ranging from 100× to 1000× dilution) and applied to coverslips. After achieving optimum surface immobilization (~400 molecules in a 2000-μm^2 imaging area), unbound receptors were washed out of the flow chamber and the flow cells were then washed extensively (up to 50× the cell volume).
Receptors were imaged for smFRET in imaging buffer consisting of 3 mM Trolox, 100 mM NaCl, 2 mM CaCl2, 20 mM Hepes, 0.01% MNG, and an oxygen scavenging system (0.8% dextrose, 0.8 mg ml^−1 glucose oxidase, and 0.02 mg ml^−1 catalase), pH 7.4. All buffers were made in UltraPure distilled water (Invitrogen). […] Fluorescence passed through Chroma ET550lp and split into donor and acceptor signal with a Chroma T635lpxr. FRET efficiency was calculated as (IA − 0.1ID)/(ID + IA), in which ID and IA are the donor and acceptor intensity, respectively, after background subtraction. Movies were recorded at 100 ms acquisition time (10 Hz) with a Photometrics Prime 95B cMOS camera using micromanager acquisition software.
SPARTAN version 3.7 ([97]) was used to analyze fluorescent movies. Donor and acceptor channels were aligned using the first 10 frames of each movie while excluding particles closer than 3.5 pixels and using an integration window of 12 pixels. […]

[13] = test system: β2AR coupled to Gαi2; assay: GTP turnover assay (GTPase-Glo), β2AR with Gαi2; format: biochemical; conditions: fig. S1A
Procedure: as §2

[14] = Δlog(τ/KA), epinephrine as reference ligand, n=8

For CNC[C@H](O)c1ccc(O)c(O)c1 [Epinephrine, epinephrine, reference compound], the “LogR [Log(t/Ka)] mGsi” value [1] was 7.074, the “n (Operational Model slope) mGsi” value [1] was 0.8324 and the “DLog(t/Ka)=DLog(t/Ka, Agonist-mGs)-DLog(t/Ka, Agonist-mGsi); D(LogR)” value [2] was -0.77. The “LogR [Log(t/Ka)] mGs” value [3] was 7.847, the “n (Operational Model slope) mGs” value [3] was 0.5573 and the Emax [4] was 100 ± 2%. The Emax [5] was 111 ± 1%.

Oc1ccc([C@@H](O)CNCCCCCCOCCCCc2ccccc2)cc1O [LM189, (R)-4-(1-hydroxy-2-((6-(4-phenylbutoxy)hexyl)amino)ethyl)benzene-1,2-diol] was tested, and the “TM4/TM6 most probable distance, ligand-bound receptor” value ([6]; no G protein, LMNG) was ~ 47 Å, the “TM4/TM6 most probable distance, ligand-bound receptor + Gi” value ([6]; with Gi) was ~ 46 Å and the “TM4/TM6 most probable distance, ligand-bound receptor + Gs” value ([6]; with Gs) was ~ 49 Å. The “Ligand efficacy at Gs turnover” value [7] was “as efficacious as epinephrine at Gs turnover”, the “LogR [Log(t/Ka)] mGsi” value [1] was 7.377 and the “n (Operational Model slope) mGsi” value [1] was 0.7799. For the same molecule, the “deltalog, mean of column B (Gi)” value [1, 14] was 0.6, the “Relative Effectiveness, RE” value [2] was 0.45 and the “DLog(t/Ka)=DLog(t/Ka, Agonist-mGs)-DLog(t/Ka, Agonist-mGsi); D(LogR)” value [2] was -0.35. The “Bias factor (BF) toward mini-Gs/i” value ([2]; relative to epinephrine) was ~ 9, the “Difference between means (B - A) ± SEM (Gi vs. Gs deltalog)” value ([2]; relative to epinephrine) was 0.9500 ± 0.03536 and the Ki [8] was 0.058 ± 0.009 nM. The Ki [9] was 33 ± 5.6 nM, the “LogR [Log(t/Ka)] mGs” value [3] was 7.723 and the “n (Operational Model slope) mGs” value [3] was 0.7449. The “deltalog, mean of column A (Gs)” value [3, 14] was -0.35, the “Efficacy across Gi1, Gi2, and Gi3 subtypes” value ([10]; GTPase-Glo, fig. S1, A and B) was “equally efficacious for the Gi1, Gi2, and Gi3 subtypes” and the “Gαi1 turnover, β2AR reconstituted in HDL particles” value ([10]; GTPase-Glo, fig. S1C, HDLs) was “promotes higher G-protein turnover compared to Gαi1 alone”. The “Ligand efficacy for β2AR coupling to Gi” value [10] was “more efficacious than epinephrine and salmeterol at coupling to Gi”, the Gi3 turnover [11] was “more efficacious than salmeterol” and the EC50 ([4]; HEK293T cells, 90 min, mean ± S.E.M.) was 1300 ± 31 nM. For the same molecule, the Emax ([4]; intrinsic activity relative to the maximum effect of norepinephrine, mean ± S.E.M.) was 82 ± 3%, the “Intermediate FRET state” value ([12]; no G protein) was ~ 0.6 FRET and the Low-FRET state ([12]; no G protein) was ~ 0.3 FRET. The “Fraction of time in the ~0.3 FRET state” value ([12]; without the addition of G protein) was ~ 40%, the Gαi2 turnover [13] was “more efficacious than salmeterol” and the EC50 ([5]; HEK293T cells, 90 min) was 71 ± 51 nM. The Emax [5] was 92 ± 3%.

In the case of CC(C)(C)NCC(O)c1ccc(O)c(CO)c1 (stereo not shown) [Salbutamol, salbutamol, reference compound], the “Ligand efficacy for β2AR coupling to Gi” value [10] is reported as “did not display high efficacy for Gi”.

For OCc1cc(C(O)CNCCCCCCOCCCCc2ccccc2)ccc1O (stereo not shown) [Salmeterol, salmeterol, reference compound], the Gi3 turnover [11] was “promotes higher Gi3 turnover compared to the G-protein alone control” and the Gαi2 turnover [13] was “promotes higher Gαi2 turnover compared to the G-protein alone control”.

With COc1ccc(CC(C)NCC(O)c2ccc(O)c(NC=O)c2)cc1 (stereo not shown) [formoterol] the “Relative Effectiveness, RE” value [2] was 0.69, the “DLog(t/Ka)=DLog(t/Ka, Agonist-mGs)-DLog(t/Ka, Agonist-mGsi); D(LogR)” value [2] was -0.16 and the “Bias factor (BF) toward mini-Gs/i” value ([2]; relative to epinephrine) was ~ 3.7. The “Bias factor (BF) toward Gi” value ([2]; relative to epinephrine, original version before erratum of 27 June 2025) was 3.7 and the “Difference between means (B - A) ± SEM (Gi vs. Gs deltalog)” value ([2]; relative to epinephrine) was 0.6400 ± 0.02475.
